In PubChem BioAssay AID2060489 (Molecular Pharmacology Branch, DTP, NCI, 2025):

System: 922993-354-T-J3-PDC complex spheroids, viability
Test: Anticancer human tumor 922993-354-T-J3-PDC patient-derived endometrial carcinoma cell line growth inhibition [GQUAD]
Conditions: for IC50: curve of first compound; for viability, T/C: stronger effect = lower value
Procedure, shortened: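 Viability of tumor cells grown as complex spheroids with endothelial and stromal cells, exposed to drug combinations. Top concentration at or near clinical Cmax (else 10 microM), diluted in half-log increments.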

[1] = second compound 0.0316 µM, first compound 0.0316 µM
[2] = second compound 0.0316 µM, first compound 0.1 µM
[3] = second compound 0.0316 µM, first compound 0.316 µM
[4] = second compound 0.0316 µM, first compound 1 µM
[5] = second compound 0.0316 µM, first compound 3.16 µM
[6] = second compound 0.0316 µM, first compound 10 µM
[7] = second compound 0.1 µM, first compound 0.0316 µM
[8] = second compound 0.1 µM, first compound 0.1 µM
[9] = second compound 0.1 µM, first compound 0.316 µM
[10] = second compound 0.1 µM, first compound 1 µM
[11] = second compound 0.1 µM, first compound 3.16 µM
[12] = second compound 0.1 µM, first compound 10 µM
[13] = second compound 0.316 µM, first compound 0.0316 µM
[14] = second compound 0.316 µM, first compound 0.1 µM
[15] = second compound 0.316 µM, first compound 0.316 µM
[16] = second compound 0.316 µM, first compound 1 µM
[17] = second compound 0.316 µM, first compound 3.16 µM
[18] = second compound 0.316 µM, first compound 10 µM
[19] = second compound 1 µM, first compound 0.0316 µM
[20] = second compound 1 µM, first compound 0.1 µM
[21] = second compound 1 µM, first compound 0.316 µM
[22] = second compound 1 µM, first compound 1 µM
[23] = second compound 1 µM, first compound 3.16 µM
[24] = second compound 1 µM, first compound 10 µM
[25] = second compound 3.16 µM, first compound 0.0316 µM
[26] = second compound 3.16 µM, first compound 0.1 µM
[27] = second compound 3.16 µM, first compound 0.316 µM
[28] = second compound 3.16 µM, first compound 1 µM
[29] = second compound 3.16 µM, first compound 3.16 µM
[30] = second compound 3.16 µM, first compound 10 µM
[31] = second compound 10 µM, first compound 0.0316 µM
[32] = second compound 10 µM, first compound 0.1 µM
[33] = second compound 10 µM, first compound 0.316 µM
[34] = second compound 10 µM, first compound 1 µM
[35] = second compound 10 µM, first compound 3.16 µM
[36] = second compound 10 µM, first compound 10 µM
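Also: spheroids exposed to compounds for seven days.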
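For viability, T/C in this document: 100% = DMSO vehicle control viability.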

CC1COCCN1c1cc(C2(S(C)(=N)=O)CC2)nc(-c2ccnc3[nH]ccc23)n1 (stereo unspecified) + Cc1[nH]c2ccc(F)cc2c1-c1nc2c3cccnc3c3ncccc3c2[nH]1
IC50 (second compound 0.0316 µM): > 10 µM | IC50 (second compound 0.1 µM): > 10 µM | IC50 (second compound 0.316 µM): > 10 µM | IC50 (second compound 1 µM): > 10 µM | IC50 (second compound 3.16 µM): > 10 µM | IC50 (second compound 10 µM): > 10 µM | viability, T/C [1]: 103% | viability, T/C [2]: 96.9% | viability, T/C [3]: 110% | viability, T/C [4]: 83.9% | viability, T/C [5]: 114% | viability, T/C [6]: 60.6% | viability, T/C [7]: 110% | viability, T/C [8]: 107% | viability, T/C [9]: 138% | viability, T/C [10]: 132% | viability, T/C [11]: 106% | viability, T/C [12]: 67.5% | viability, T/C [13]: 135% | viability, T/C [14]: 117% | viability, T/C [15]: 109% | viability, T/C [16]: 124% | viability, T/C [17]: 79.6% | viability, T/C [18]: 67% | viability, T/C [19]: 118% | viability, T/C [20]: 106% | viability, T/C [21]: 109% | viability, T/C [22]: 106% | viability, T/C [23]: 106% | viability, T/C [24]: 80.1% | viability, T/C [25]: 92.3% | viability, T/C [26]: 124% | viability, T/C [27]: 87.2% | viability, T/C [28]: 104% | viability, T/C [29]: 88.8% | viability, T/C [30]: 81.4% | viability, T/C [31]: 138% | viability, T/C [32]: 104% | viability, T/C [33]: 128% | viability, T/C [34]: 96.3% | viability, T/C [35]: 101% | viability, T/C [36]: 89%

Cc1cccc(N(C)C(=O)C2C(O)CCN2c2nc(C)cc(C(F)(F)F)c2C#N)c1 (stereo unspecified) + Cc1[nH]c2ccc(F)cc2c1-c1nc2c3cccnc3c3ncccc3c2[nH]1
IC50 (second compound 0.0316 µM): > 10 µM | IC50 (second compound 0.1 µM): > 10 µM | IC50 (second compound 0.316 µM): > 10 µM | IC50 (second compound 1 µM): > 10 µM | IC50 (second compound 3.16 µM): > 10 µM | IC50 (second compound 10 µM): > 10 µM | viability, T/C [1]: 111% | viability, T/C [2]: 112% | viability, T/C [3]: 80.8% | viability, T/C [4]: 94% | viability, T/C [5]: 120% | viability, T/C [6]: 82.9% | viability, T/C [7]: 108% | viability, T/C [8]: 122% | viability, T/C [9]: 97.7% | viability, T/C [10]: 135% | viability, T/C [11]: 120% | viability, T/C [12]: 126% | viability, T/C [13]: 90.7% | viability, T/C [14]: 112% | viability, T/C [15]: 74.7% | viability, T/C [16]: 104% | viability, T/C [17]: 87.9% | viability, T/C [18]: 99.3% | viability, T/C [19]: 112% | viability, T/C [20]: 96.5% | viability, T/C [21]: 104% | viability, T/C [22]: 114% | viability, T/C [23]: 102% | viability, T/C [24]: 97.3% | viability, T/C [25]: 123% | viability, T/C [26]: 121% | viability, T/C [27]: 103% | viability, T/C [28]: 96.9% | viability, T/C [29]: 129% | viability, T/C [30]: 73.8% | viability, T/C [31]: 87% | viability, T/C [32]: 94.3% | viability, T/C [33]: 109% | viability, T/C [34]: 111% | viability, T/C [35]: 95.4% | viability, T/C [36]: 123%

COc1ncnc(C2CC2)c1-c1ncc2cnn(Cc3ccc(-c4nc(C(F)(F)F)cn4C(C)C)cc3)c2n1 + CN(C)c1ccc(Nc2c3ccc(NC(=O)CCN4CCCC4)cc3nc3cc(NC(=O)CCN4CCCC4)ccc23)cc1
IC50 (second compound 0.0316 µM): > 10 µM | IC50 (second compound 0.1 µM): > 10 µM | IC50 (second compound 0.316 µM): > 10 µM | IC50 (second compound 1 µM): > 10 µM | IC50 (second compound 3.16 µM): > 10 µM | IC50 (second compound 10 µM): > 10 µM | viability, T/C [1]: 94.4% | viability, T/C [2]: 96.5% | viability, T/C [3]: 84% | viability, T/C [4]: 72.3% | viability, T/C [5]: 63.5% | viability, T/C [6]: 87.7% | viability, T/C [7]: 86% | viability, T/C [8]: 86.7% | viability, T/C [9]: 80.9% | viability, T/C [10]: 86.6% | viability, T/C [11]: 101% | viability, T/C [12]: 67.2% | viability, T/C [13]: 90.8% | viability, T/C [14]: 86% | viability, T/C [15]: 74.2% | viability, T/C [16]: 81.2% | viability, T/C [17]: 90.1% | viability, T/C [18]: 74.2% | viability, T/C [19]: 73.8% | viability, T/C [20]: 86.4% | viability, T/C [21]: 93.6% | viability, T/C [22]: 74.3% | viability, T/C [23]: 90.4% | viability, T/C [24]: 76.8% | viability, T/C [25]: 98.3% | viability, T/C [26]: 109% | viability, T/C [27]: 108% | viability, T/C [28]: 98.3% | viability, T/C [29]: 108% | viability, T/C [30]: 76.6% | viability, T/C [31]: 115% | viability, T/C [32]: 116% | viability, T/C [33]: 86.6% | viability, T/C [34]: 107% | viability, T/C [35]: 101% | viability, T/C [36]: 62.9%
